# Test results taken from ChEMBL document CHEMBL1137914, “Optimizing the antibacterial activity of a lead structure discovered by "SAR by MS" technology” (Bioorg Med Chem Lett, 2004).
# Test system: Staphylococcus aureus
# Test: Minimal inhibitory concentration required against Staphylococcus aureus ATCC 13709 was determined
# Format: functional
row,Compound,MIC [µM]
1,CCc1c(C)nc2ccc(C(=O)Nc3cccc(-c4ccc(C(=O)NC(C(=O)N5CCNCC5)c5ccc(OCCCN(C)C)cc5)o4)c3)cc2c1Cl (centres undefined),> 100

# Test system: Escherichia coli
# Test: Minimal inhibitory concentration required against Escherichia coli ATCC 25922 was determined; values ranges from 6-13
# Format: functional
row,Compound,MIC [µM]
1,CN(C)CCCOc1ccc(C(NC(=O)c2ccc(-c3cccc(NC(=O)c4ccc5cc(Br)ccc5c4)c3)o2)C(=O)N2CCNCC2)cc1 (centres undefined),< 13
2,CN(C)CCCOc1ccc(C(NC(=O)c2ccc(-c3cccc(NC(=O)c4ccc(Br)cc4)c3)o2)C(=O)N2CCNCC2)cc1 (centres undefined),< 13
3,CN(C)CCCOc1ccc(C(NC(=O)c2ccc(-c3cccc(NC(=O)c4ccc(-c5ccccc5)cc4)c3)o2)C(=O)N2CCNCC2)cc1 (centres undefined),< 13

# Test system: Escherichia coli
# Test: Antibacterial activity against Escherichia coli was determined at 100 uM
# Format: functional
row,Compound,inhibition at 100 µM [%]
1,NCC[C@@H](NC(=O)c1ccc(-c2cccc(NC(=O)c3cnc4ccccc4c3)c2)o1)C(=O)N1CCNCC1,< 75
2,CN(C)CCCOc1ccc(C(NC(=O)c2ccc(-c3cccc(NC(=O)C4CCCCC4)c3)o2)C(=O)N2CCNCC2)cc1 (centres undefined),< 75
3,CN(C)CCCOc1ccc(C(NC(=O)c2ccc(-c3cccc(NC(=O)c4ccc5ncccc5c4)c3)o2)C(=O)N2CCNCC2)cc1 (centres undefined),< 75
4,CN(C)CCCC(=O)Nc1cccc(-c2ccc(C(=O)N[C@H](CCN)C(=O)N3CCNCC3)o2)c1,< 75
5,NCC[C@@H](NC(=O)c1ccc(-c2cccc(N)c2)o1)C(=O)N1CCNCC1,< 75
6,CN(C)CCCOc1ccc(C(NC(=O)c2ccc(-c3cccc(NS(=O)(=O)c4ccc5nc(O)c(O)nc5c4)c3)o2)C(=O)N2CCNCC2)cc1 (centres undefined),< 75
7,CN(C)CCCOc1ccc(C(NC(=O)c2ccc(-c3cccc(NC(=O)c4ccccc4I)c3)o2)C(=O)N2CCNCC2)cc1 (centres undefined),< 75
8,CN(C)CCCOc1ccc(C(NC(=O)c2ccc(-c3cccc(NC(=O)CCCN(C)C)c3)o2)C(=O)N2CCNCC2)cc1 (centres undefined),< 75
9,NCC[C@@H](NC(=O)c1ccc(-c2cccc(NC(=O)c3cnccn3)c2)o1)C(=O)N1CCNCC1,< 75
10,CN(C)CCCOc1ccc(C(NC(=O)c2ccc(-c3cccc(N)c3)o2)C(=O)N2CCNCC2)cc1 (centres undefined),< 75
11,CN(C)CCCOc1ccc(C(NC(=O)c2ccc(-c3cccc(NC(=O)c4ccccc4)c3)o2)C(=O)N2CCNCC2)cc1 (centres undefined),< 75
12,CN(C)CCCOc1ccc(C(NC(=O)c2ccc(-c3cccc(NC(=O)c4nncs4)c3)o2)C(=O)N2CCNCC2)cc1 (centres undefined),< 75
13,CN(C)CCCOc1ccc(C(NC(=O)c2ccc(-c3cccc(NC(=O)c4cnccn4)c3)o2)C(=O)N2CCNCC2)cc1 (centres undefined),< 75

# Test system: Escherichia coli
# Test: In vitro dissociation constant of compound required for inhibition of Escherichia coli translation was determined
# Format: functional, organism-based
row,Compound,IC50 [µM]
1,NCC[C@@H](NC(=O)c1ccc(-c2cccc(NC(=O)c3cnc4ccccc4c3)c2)o1)C(=O)N1CCNCC1,46
2,CN(C)CCCOc1ccc(C(NC(=O)c2ccc(-c3cccc(NC(=O)C4CCCCC4)c3)o2)C(=O)N2CCNCC2)cc1 (centres undefined),> 100
3,CN(C)CCCOc1ccc(C(NC(=O)c2ccc(-c3cccc(NC(=O)c4ccc5ncccc5c4)c3)o2)C(=O)N2CCNCC2)cc1 (centres undefined),6
4,CN(C)CCCC(=O)Nc1cccc(-c2ccc(C(=O)N[C@H](CCN)C(=O)N3CCNCC3)o2)c1,> 100
5,NCC[C@@H](NC(=O)c1ccc(-c2cccc(N)c2)o1)C(=O)N1CCNCC1,> 100
6,CN(C)CCCOc1ccc(C(NC(=O)c2ccc(-c3cccc(NS(=O)(=O)c4ccc5nc(O)c(O)nc5c4)c3)o2)C(=O)N2CCNCC2)cc1 (centres undefined),33
7,CN(C)CCCOc1ccc(C(NC(=O)c2ccc(-c3cccc(NC(=O)c4ccc5cc(Br)ccc5c4)c3)o2)C(=O)N2CCNCC2)cc1 (centres undefined),5
8,CN(C)CCCOc1ccc(C(NC(=O)c2ccc(-c3cccc(NC(=O)c4ccccc4I)c3)o2)C(=O)N2CCNCC2)cc1 (centres undefined),38
9,CN(C)CCCOc1ccc(C(NC(=O)c2ccc(-c3cccc(NC(=O)CCCN(C)C)c3)o2)C(=O)N2CCNCC2)cc1 (centres undefined),> 100
10,NCC[C@@H](NC(=O)c1ccc(-c2cccc(NC(=O)c3cnccn3)c2)o1)C(=O)N1CCNCC1,> 100
11,CN(C)CCCOc1ccc(C(NC(=O)c2ccc(-c3cccc(N)c3)o2)C(=O)N2CCNCC2)cc1 (centres undefined),> 100
12,CN(C)CCCOc1ccc(C(NC(=O)c2ccc(-c3cccc(NC(=O)c4ccccc4)c3)o2)C(=O)N2CCNCC2)cc1 (centres undefined),40
13,CCc1c(C)nc2ccc(C(=O)Nc3cccc(-c4ccc(C(=O)NC(C(=O)N5CCNCC5)c5ccc(OCCCN(C)C)cc5)o4)c3)cc2c1Cl (centres undefined),0.78
14,CN(C)CCCOc1ccc(C(NC(=O)c2ccc(-c3cccc(NC(=O)c4nncs4)c3)o2)C(=O)N2CCNCC2)cc1 (centres undefined),13
15,CN(C)CCCOc1ccc(C(NC(=O)c2ccc(-c3cccc(NC(=O)c4cnccn4)c3)o2)C(=O)N2CCNCC2)cc1 (centres undefined),15
16,CN(C)CCCOc1ccc(C(NC(=O)c2ccc(-c3cccc(NC(=O)c4ccc(Br)cc4)c3)o2)C(=O)N2CCNCC2)cc1 (centres undefined),5
17,CN(C)CCCOc1ccc(C(NC(=O)c2ccc(-c3cccc(NC(=O)c4ccc(-c5ccccc5)cc4)c3)o2)C(=O)N2CCNCC2)cc1 (centres undefined),9

# Test system: Staphylococcus aureus
# Test: Minimal inhibitory concentration required against Staphylococcus aureus ATCC 13709 was determined; values ranges from 3-6
# Format: functional
row,Compound,MIC [µM]
1,CN(C)CCCOc1ccc(C(NC(=O)c2ccc(-c3cccc(NC(=O)c4ccc(-c5ccccc5)cc4)c3)o2)C(=O)N2CCNCC2)cc1 (centres undefined),< 6

# Test system: Escherichia coli
# Test: Minimal inhibitory concentration required against Escherichia coli ATCC 25922 was determined; values ranges from 13-25
# Format: functional
row,Compound,MIC [µM]
1,CCc1c(C)nc2ccc(C(=O)Nc3cccc(-c4ccc(C(=O)NC(C(=O)N5CCNCC5)c5ccc(OCCCN(C)C)cc5)o4)c3)cc2c1Cl (centres undefined),< 25

# Test system: Staphylococcus aureus
# Test: Minimal inhibitory concentration required against Staphylococcus aureus ATCC 13709 was determined; values ranges from […]
# Format: functional
row,Compound,MIC [µM]
1,CN(C)CCCOc1ccc(C(NC(=O)c2ccc(-c3cccc(NC(=O)c4ccc5cc(Br)ccc5c4)c3)o2)C(=O)N2CCNCC2)cc1 (centres undefined),< 25
2,CN(C)CCCOc1ccc(C(NC(=O)c2ccc(-c3cccc(NC(=O)c4ccc(Br)cc4)c3)o2)C(=O)N2CCNCC2)cc1 (centres undefined),< 25

# Test system: Staphylococcus aureus
# Test: Antibacterial activity against Staphylococcus aureus was determined at 100 uM
# Format: functional
row,Compound,inhibition at 100 µM [%]
1,NCC[C@@H](NC(=O)c1ccc(-c2cccc(NC(=O)c3cnc4ccccc4c3)c2)o1)C(=O)N1CCNCC1,< 75
2,CN(C)CCCOc1ccc(C(NC(=O)c2ccc(-c3cccc(NC(=O)C4CCCCC4)c3)o2)C(=O)N2CCNCC2)cc1 (centres undefined),< 75
3,CN(C)CCCOc1ccc(C(NC(=O)c2ccc(-c3cccc(NC(=O)c4ccc5ncccc5c4)c3)o2)C(=O)N2CCNCC2)cc1 (centres undefined),< 75
4,CN(C)CCCC(=O)Nc1cccc(-c2ccc(C(=O)N[C@H](CCN)C(=O)N3CCNCC3)o2)c1,< 75
5,NCC[C@@H](NC(=O)c1ccc(-c2cccc(N)c2)o1)C(=O)N1CCNCC1,< 75
6,CN(C)CCCOc1ccc(C(NC(=O)c2ccc(-c3cccc(NS(=O)(=O)c4ccc5nc(O)c(O)nc5c4)c3)o2)C(=O)N2CCNCC2)cc1 (centres undefined),< 75
7,CN(C)CCCOc1ccc(C(NC(=O)c2ccc(-c3cccc(NC(=O)c4ccccc4I)c3)o2)C(=O)N2CCNCC2)cc1 (centres undefined),< 75
8,CN(C)CCCOc1ccc(C(NC(=O)c2ccc(-c3cccc(NC(=O)CCCN(C)C)c3)o2)C(=O)N2CCNCC2)cc1 (centres undefined),< 75
9,NCC[C@@H](NC(=O)c1ccc(-c2cccc(NC(=O)c3cnccn3)c2)o1)C(=O)N1CCNCC1,< 75
10,CN(C)CCCOc1ccc(C(NC(=O)c2ccc(-c3cccc(N)c3)o2)C(=O)N2CCNCC2)cc1 (centres undefined),< 75
11,CN(C)CCCOc1ccc(C(NC(=O)c2ccc(-c3cccc(NC(=O)c4ccccc4)c3)o2)C(=O)N2CCNCC2)cc1 (centres undefined),< 75
12,CN(C)CCCOc1ccc(C(NC(=O)c2ccc(-c3cccc(NC(=O)c4nncs4)c3)o2)C(=O)N2CCNCC2)cc1 (centres undefined),< 75
13,CN(C)CCCOc1ccc(C(NC(=O)c2ccc(-c3cccc(NC(=O)c4cnccn4)c3)o2)C(=O)N2CCNCC2)cc1 (centres undefined),< 75

# Test system: Proteus vulgaris
# Test: Minimal inhibitory concentration required against Proteus vulgaris was determined; values ranges from 50-100
row,Compound,MIC [µM]
1,CN(C)CCCOc1ccc(C(NC(=O)c2ccc(-c3cccc(NC(=O)c4ccc(-c5ccccc5)cc4)c3)o2)C(=O)N2CCNCC2)cc1 (centres undefined),< 100

# Test system: Enterococcus faecalis
# Test: Minimal inhibitory concentration required against Enterococcus faecalis was determined; values ranges from 3-6
row,Compound,MIC [µM]
1,CN(C)CCCOc1ccc(C(NC(=O)c2ccc(-c3cccc(NC(=O)c4ccc(-c5ccccc5)cc4)c3)o2)C(=O)N2CCNCC2)cc1 (centres undefined),< 6

# Test system: Streptococcus pyogenes
# Test: Minimal inhibitory concentration required against Streptococcus pyogenes was determined; values ranges from 3-6
row,Compound,MIC [µM]
1,CN(C)CCCOc1ccc(C(NC(=O)c2ccc(-c3cccc(NC(=O)c4ccc(-c5ccccc5)cc4)c3)o2)C(=O)N2CCNCC2)cc1 (centres undefined),< 6
